Source: publication PMC10065276, “Enhanced therapeutic window for antimicrobial Pept-ins by investigating their structure-activity relationship” (PLOS ONE, 2023)
Residues, ends and D or L forms follow the SMILES beside them.

System: E. coli BL21
Details: BL21, 17 h
Description: The peptide MIC was determined via the broth microdilution assay according to the EUCAST guideline, using 96-well polystyrene flat-bottom microtiter plates (BD Biosciences). Briefly, a single colony was inoculated in 5 mL Mueller-Hinton (MH) medium and incubated, while shaking at 37°C, to the end-exponential growth phase. The bacterial culture was subsequently diluted to 0.005 McFarland (McF) (~1.5x10^6 CFU/mL) with fresh MH medium. Two-fold serial peptide-dilutions were prepared in 50 μL MH medium resulting in a concentration range of 0.75 to 100 μg/mL (at least three wells for each concentration). Afterwards, 50 μL of the freshly diluted bacterial suspension (0.005 McF) was mixed with different peptide concentrations in the 96-well plate, performed in triplicates. The plate was ultimately incubated at 37°C overnight without shaking for 17 hours. The MIC was determined as the lowest peptide concentration without visible bacterial growth.

SMILES | BL21 MIC
CC(C)C[C@H](NC(=O)CNC(=O)[C@H](CCCNC(=N)N)NC(=O)[C@@H]1CCCN1C(=O)[C@H](CCCNC(=N)N)NC(=O)[C@H](CCCNC(=N)N)NC(=O)[C@@H](NC(=O)[C@H](CC(C)C)NC(=O)[C@H](Cc1ccccc1)NC(=O)[C@H](CC(C)C)NC(=O)CNC(=O)[C@H](CC(C)C)NC(=O)CNC(=O)[C@@H](N)CCCNC(=N)N)C(C)C)C(=O)NCC(=O)N[C@@H](CC(C)C)C(=O)N[C@@H](Cc1ccccc1)C(=O)N[C@@H](CC(C)C)C(=O)N[C@H](C(=O)N[C@@H](CCCNC(=N)N)C(=O)N[C@@H](CCCNC(=N)N)C(=O)O)C(C)C [A5F (P2)] (H-RGLGLFLVRRPRGLGLFLVRR-OH) | 12.50 µg/mL
CC(C)C[C@H](NC(=O)CNC(=O)[C@H](CC(C)C)NC(=O)CNC(=O)[C@H](CCCNC(=N)N)NC(=O)[C@@H]1CCCN1C(=O)[C@H](CCCNC(=N)N)NC(=O)[C@H](CCCNC(=N)N)NC(=O)[C@@H](NC(=O)[C@H](CC(C)C)NC(=O)CNC(=O)[C@H](CC(C)C)NC(=O)CNC(=O)[C@H](CC(C)C)NC(=O)CNC(=O)[C@@H](N)CCCNC(=N)N)C(C)C)C(=O)NCC(=O)N[C@@H](CC(C)C)C(=O)N[C@H](C(=O)N[C@@H](CCCNC(=N)N)C(=O)N[C@@H](CCCNC(=N)N)C(=O)O)C(C)C [A5G (P2)] (H-RGLGLGLVRRPRGLGLGLVRR-OH) | 25.00 µg/mL
CC[C@H](C)[C@H](NC(=O)[C@H](CC(C)C)NC(=O)CNC(=O)[C@H](CC(C)C)NC(=O)CNC(=O)[C@H](CCCNC(=N)N)NC(=O)[C@@H]1CCCN1C(=O)[C@H](CCCNC(=N)N)NC(=O)[C@H](CCCNC(=N)N)NC(=O)[C@@H](NC(=O)[C@H](CC(C)C)NC(=O)[C@@H](NC(=O)[C@H](CC(C)C)NC(=O)CNC(=O)[C@H](CC(C)C)NC(=O)CNC(=O)[C@@H](N)CCCNC(=N)N)[C@@H](C)CC)C(C)C)C(=O)N[C@@H](CC(C)C)C(=O)N[C@H](C(=O)N[C@@H](CCCNC(=N)N)C(=O)N[C@@H](CCCNC(=N)N)C(=O)O)C(C)C [A5I (P2)] (H-RGLGLILVRRPRGLGLILVRR-OH) | 6.25 µg/mL
CC(C)C[C@H](NC(=O)CNC(=O)[C@H](CCCNC(=N)N)NC(=O)[C@@H]1CCCN1C(=O)[C@H](CCCNC(=N)N)NC(=O)[C@H](CCCNC(=N)N)NC(=O)[C@@H](NC(=O)[C@H](CC(C)C)NC(=O)[C@H](CC(C)C)NC(=O)[C@H](CC(C)C)NC(=O)CNC(=O)[C@H](CC(C)C)NC(=O)CNC(=O)[C@@H](N)CCCNC(=N)N)C(C)C)C(=O)NCC(=O)N[C@@H](CC(C)C)C(=O)N[C@@H](CC(C)C)C(=O)N[C@@H](CC(C)C)C(=O)N[C@H](C(=O)N[C@@H](CCCNC(=N)N)C(=O)N[C@@H](CCCNC(=N)N)C(=O)O)C(C)C [A5L (P2)] (H-RGLGLLLVRRPRGLGLLLVRR-OH) | 12.50 µg/mL
CSCC[C@H](NC(=O)[C@H](CC(C)C)NC(=O)CNC(=O)[C@H](CC(C)C)NC(=O)CNC(=O)[C@H](CCCNC(=N)N)NC(=O)[C@@H]1CCCN1C(=O)[C@H](CCCNC(=N)N)NC(=O)[C@H](CCCNC(=N)N)NC(=O)[C@@H](NC(=O)[C@H](CC(C)C)NC(=O)[C@H](CCSC)NC(=O)[C@H](CC(C)C)NC(=O)CNC(=O)[C@H](CC(C)C)NC(=O)CNC(=O)[C@@H](N)CCCNC(=N)N)C(C)C)C(=O)N[C@@H](CC(C)C)C(=O)N[C@H](C(=O)N[C@@H](CCCNC(=N)N)C(=O)N[C@@H](CCCNC(=N)N)C(=O)O)C(C)C [A5M (P2)] (H-RGLGLMLVRRPRGLGLMLVRR-OH) | 6.25 µg/mL
CC(C)C[C@H](NC(=O)CNC(=O)[C@H](CCCNC(=N)N)NC(=O)[C@@H]1CCCN1C(=O)[C@H](CCCNC(=N)N)NC(=O)[C@H](CCCNC(=N)N)NC(=O)[C@@H](NC(=O)[C@H](CC(C)C)NC(=O)[C@H](Cc1c[nH]c2ccccc12)NC(=O)[C@H](CC(C)C)NC(=O)CNC(=O)[C@H](CC(C)C)NC(=O)CNC(=O)[C@@H](N)CCCNC(=N)N)C(C)C)C(=O)NCC(=O)N[C@@H](CC(C)C)C(=O)N[C@@H](Cc1c[nH]c2ccccc12)C(=O)N[C@@H](CC(C)C)C(=O)N[C@H](C(=O)N[C@@H](CCCNC(=N)N)C(=O)N[C@@H](CCCNC(=N)N)C(=O)O)C(C)C [A5W (P2)] (H-RGLGLWLVRRPRGLGLWLVRR-OH) | 12.50 µg/mL
CC(C)C[C@H](NC(=O)CNC(=O)[C@H](CCCNC(=N)N)NC(=O)[C@@H]1CCCN1C(=O)[C@H](CCCNC(=N)N)NC(=O)[C@H](CCCNC(=N)N)NC(=O)[C@@H](NC(=O)[C@H](CC(C)C)NC(=O)[C@H](Cc1ccc(O)cc1)NC(=O)[C@H](CC(C)C)NC(=O)CNC(=O)[C@H](CC(C)C)NC(=O)CNC(=O)[C@@H](N)CCCNC(=N)N)C(C)C)C(=O)NCC(=O)N[C@@H](CC(C)C)C(=O)N[C@@H](Cc1ccc(O)cc1)C(=O)N[C@@H](CC(C)C)C(=O)N[C@H](C(=O)N[C@@H](CCCNC(=N)N)C(=O)N[C@@H](CCCNC(=N)N)C(=O)O)C(C)C [A5Y (P2)] (H-RGLGLYLVRRPRGLGLYLVRR-OH) | 6.25 µg/mL
CC(C)C[C@H](NC(=O)CNC(=O)[C@H](CCCNC(=N)N)NC(=O)[C@@H]1CCCN1C(=O)[C@H](CCCNC(=N)N)NC(=O)[C@H](CCCNC(=N)N)NC(=O)[C@@H](NC(=O)CNC(=O)[C@H](C)NC(=O)[C@H](CC(C)C)NC(=O)CNC(=O)[C@H](CC(C)C)NC(=O)CNC(=O)[C@@H](N)CCCNC(=N)N)C(C)C)C(=O)NCC(=O)N[C@@H](CC(C)C)C(=O)N[C@@H](C)C(=O)NCC(=O)N[C@H](C(=O)N[C@@H](CCCNC(=N)N)C(=O)N[C@@H](CCCNC(=N)N)C(=O)O)C(C)C [L6G (P2)] (H-RGLGLAGVRRPRGLGLAGVRR-OH) | 100.00 µg/mL
CC(C)C[C@H](NC(=O)CNC(=O)[C@H](CCCNC(=N)N)NC(=O)[C@@H]1CCCN1C(=O)[C@H](CCCNC(=N)N)NC(=O)[C@H](CCCNC(=N)N)NC(=O)[C@H](Cc1c[nH]cn1)NC(=O)[C@H](Cc1c[nH]cn1)NC(=O)[C@H](C)NC(=O)[C@H](CC(C)C)NC(=O)CNC(=O)[C@H](CC(C)C)NC(=O)CNC(=O)[C@@H](N)CCCNC(=N)N)C(=O)NCC(=O)N[C@@H](CC(C)C)C(=O)N[C@@H](C)C(=O)N[C@@H](Cc1c[nH]cn1)C(=O)N[C@@H](Cc1c[nH]cn1)C(=O)N[C@@H](CCCNC(=N)N)C(=O)N[C@@H](CCCNC(=N)N)C(=O)O [P2_zero_tango_3] (H-RGLGLAHHRRPRGLGLAHHRR-OH) | >100.00 µg/mL
CC(C)C[C@H](NC(=O)CNC(=O)[C@H](CCCNC(=N)N)NC(=O)[C@@H]1CCCN1C(=O)[C@H](CCCNC(=N)N)NC(=O)[C@H](CCCNC(=N)N)NC(=O)[C@@H]1CCCN1C(=O)[C@H](CC(C)C)NC(=O)[C@H](C)NC(=O)[C@H](CC(C)C)NC(=O)CNC(=O)[C@H](CC(C)C)NC(=O)CNC(=O)[C@@H](N)CCCNC(=N)N)C(=O)NCC(=O)N[C@@H](CC(C)C)C(=O)N[C@@H](C)C(=O)N[C@@H](CC(C)C)C(=O)N1CCC[C@H]1C(=O)N[C@@H](CCCNC(=N)N)C(=O)N[C@@H](CCCNC(=N)N)C(=O)O [P2_zero_tango_4] (H-RGLGLALPRRPRGLGLALPRR-OH) | >100.00 µg/mL
CC(C)C[C@H](NC(=O)CNC(=O)[C@H](CCCNC(=N)N)NC(=O)[C@@H]1CCCN1C(=O)[C@H](CCCNC(=N)N)NC(=O)[C@H](CCCNC(=N)N)NC(=O)[C@@H](NC(=O)[C@H](CC(C)C)NC(=O)[C@H](CC(=O)O)NC(=O)[C@H](CC(C)C)NC(=O)CNC(=O)[C@H](CC(C)C)NC(=O)CNC(=O)[C@@H](N)CCCNC(=N)N)C(C)C)C(=O)NCC(=O)N[C@@H](CC(C)C)C(=O)N[C@@H](CC(=O)O)C(=O)N[C@@H](CC(C)C)C(=O)N[C@H](C(=O)N[C@@H](CCCNC(=N)N)C(=O)N[C@@H](CCCNC(=N)N)C(=O)O)C(C)C [P2_zero_tango_5] (H-RGLGLDLVRRPRGLGLDLVRR-OH) | >100.00 µg/mL
